Source: patent US20250136597A1, “COMPOUNDS AND COMPOSITIONS FOR TREATING CONDITIONS ASSOCIATED WITH STING ACTIVITY” (IFM Due, Inc., priority 2020, published 2025)

biological target: T1, hSTING (Homo sapiens, UniProt Q86WV6, G230A/H232R/R293Q/R71H); experiment: STING reporter assay in THP1-Dual KO-IFNAR2 cells (2′3′cGAMP stimulation, luciferase reporter); format: cell-based; settings: final 2′3′cGAMP 15 μM, 24 h, luciferase reporter activity
T1 construct: host or cells: THP1-Dual KO-IFNAR2 cells
Method: STING pathway activation by the compounds described herein was measured using THP1-Dual™ cells (KO-IFNAR2).
THP1-Dual™ KO-IFNAR2 Cells (obtained from invivogen) were maintained in RPMI, 10% FCS, 5 ml P/S, 2 mM L-glut, 10 mM Hepes, and 1 mM sodium pyruvate. Compounds were spotted in empty 384 well tissue culture plates (Greiner 781182) by Echo for a final concentration of 0.0017-100 μM. Cells were plated into the TC plates at 40 μL per well, 2×10E6 cells/mL. For activation with STING ligand, 2′3′cGAMP (MW 718.38, obtained from Invivogen), was prepared in Optimem media.
The following solutions were prepared for each 1×384 plate: • Solution A: 2 mL Optimem with one of the following stimuli: • 60 μL of 10 mM 2′3′cGAMP→150 μM stock • Solution B: 2 mL Optimem with 60 μL Lipofectamine 2000→Incubate 5 min at RT
2 mL of solution A and 2 ml Solution B was mixed and incubated for 20 min at room temperature (RT). 20 μL of transfection solution (A+B) was added on top of the plated cells, with a final 2′3′cGAMP concentration of 15 μM. The plates were then centrifuged immediately at 340 g for 1 minute, after which they were incubated at 37° C., 5% CO2, >98% humidity for 24 h. Luciferase reporter activity was then measured. EC50 values were calculated by using standard methods known in the art.
Luciferase reporter assay: 10 μL of supernatant from the assay was transferred to white 384-plate with flat bottom and squared wells. One pouch of QUANTI-Luc™ Plus was dissolved in 25 mL of water. 100 μL of QLC Stabilizer per 25 mL of QUANTI-Luc™ Plus solution was added. 50 μL of QUANTI-Luc™ Plus/QLC solution per well was then added. Luminescence was measured on a Platereader (e.g., Spectramax I3X (Molecular Devices GF3637001)).
Luciferase reporter activity was then measured. EC50 values were calculated by using standard methods known in the art.

T1 sequence (Q86WV6 whole entry R71H/G230A/H232R/R293Q): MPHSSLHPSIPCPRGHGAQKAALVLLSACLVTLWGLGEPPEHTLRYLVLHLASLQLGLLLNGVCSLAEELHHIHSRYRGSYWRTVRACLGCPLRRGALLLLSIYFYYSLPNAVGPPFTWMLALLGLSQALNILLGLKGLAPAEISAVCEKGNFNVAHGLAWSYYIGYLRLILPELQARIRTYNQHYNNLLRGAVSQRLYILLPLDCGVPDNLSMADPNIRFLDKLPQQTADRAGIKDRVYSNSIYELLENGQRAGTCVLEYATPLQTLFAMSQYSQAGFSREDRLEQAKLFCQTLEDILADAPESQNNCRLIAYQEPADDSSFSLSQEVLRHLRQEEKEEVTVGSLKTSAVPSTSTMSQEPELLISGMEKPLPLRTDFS

EC50 [µM] | Structure (SMILES)
0.2 to 1 | CCc1ccc(-n2cc(-c3ccc4[nH]cc(NS(=O)(=O)CC5CCCO5)c4c3)cn2)cc1 (stereo not shown) [Compound 101, N-(5-(1-(4-ethylphenyl)-1H-pyrazol-4-yl)-1H-indol-3-yl)-1-(tetrahydrofuran-2-yl)methanesulfonamide]
0.2 to 1 | CCc1ccc(-n2cc(-c3ccc4[nH]cc(NS(=O)(=O)CC5CC5)c4c3)cn2)cc1 [Compound 102, 1-cyclopropyl-N-(5-(1-(4-ethylphenyl)-1H-pyrazol-4-yl)-1H-indol-3-yl)methanesulfonamide]
0.2 to 1 | CCc1ccc(-n2cc(-c3ccc4[nH]cc(NS(=O)(=O)C5CCC5)c4c3)cn2)cc1 [Compound 103, N-(5-(1-(4-ethylphenyl)-1H-pyrazol-4-yl)-1H-indol-3 yl)cyclobutanesulfonamide]
1 to 5 | CCc1ccc(-n2cc(-c3ccc4[nH]cc(NS(=O)(=O)CC)c4c3)cn2)cc1 [Compound 104, N-(5-(1-(4-ethylphenyl)-1H-pyrazol-4-yl)-1H-indol-3-yl)ethanesulfonamide]
